This is an account of results in publication PMC11593465, “Na^+ Translocation Dominates over H^+-Translocation in the Membrane Pyrophosphatase with Dual Transport Specificity” (International Journal of Molecular Sciences, 2024).

For orientation: Km means the concentration of substrate that gives half-maximal velocity.

The target in data set [1] is T1, Da-mPPase (Na+-translocating mPPase of Desulfuromonas acetoxidans) (Desulfuromonas acetoxidans, UniProt Q1JY39).
T1 construct: gene hppA; recombinant, expressed in E. coli C41(DE3), in inverted membrane vesicles; homodimer of approx. 70-kDa subunits
T1 sequence (Q1JY39 1-668): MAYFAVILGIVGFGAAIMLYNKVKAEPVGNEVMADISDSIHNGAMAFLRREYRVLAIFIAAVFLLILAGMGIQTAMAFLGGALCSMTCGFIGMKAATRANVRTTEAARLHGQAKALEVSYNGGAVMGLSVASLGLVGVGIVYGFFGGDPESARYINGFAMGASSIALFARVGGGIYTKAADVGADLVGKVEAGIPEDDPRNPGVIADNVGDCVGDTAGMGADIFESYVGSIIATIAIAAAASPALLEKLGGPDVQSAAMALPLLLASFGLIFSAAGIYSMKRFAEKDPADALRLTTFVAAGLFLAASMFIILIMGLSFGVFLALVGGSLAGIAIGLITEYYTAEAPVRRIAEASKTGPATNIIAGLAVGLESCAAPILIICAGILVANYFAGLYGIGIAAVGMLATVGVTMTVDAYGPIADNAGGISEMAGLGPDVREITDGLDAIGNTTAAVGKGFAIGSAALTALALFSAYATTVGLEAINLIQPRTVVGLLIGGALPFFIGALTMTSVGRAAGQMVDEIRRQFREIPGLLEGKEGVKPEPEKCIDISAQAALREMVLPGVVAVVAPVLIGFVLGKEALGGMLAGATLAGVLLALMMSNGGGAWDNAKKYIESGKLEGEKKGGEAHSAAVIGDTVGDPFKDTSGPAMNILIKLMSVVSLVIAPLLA
Description: PPi hydrolysis (continuous Pi assay) and pyranine Na+ transport assay, membrane vesicles. It counts as biochemical. To be noted: 150 µM PPi, 5 mM MgSO4, 5 mM Na2SO4, 25 mM K2SO4, 100 mM Mops-KOH pH 7.2.

Data set [2] concerns the target T2, Dh-mPPase (H+-translocating mPPase of Desulfitobacterium hafniense) (Desulfitobacterium hafniense, UniProt B8FXV7).
T2 construct: gene hppA; recombinant, expressed in E. coli C41(DE3), in inverted membrane vesicles; homodimer of approx. 70-kDa subunits
T2 sequence (B8FXV7 1-671): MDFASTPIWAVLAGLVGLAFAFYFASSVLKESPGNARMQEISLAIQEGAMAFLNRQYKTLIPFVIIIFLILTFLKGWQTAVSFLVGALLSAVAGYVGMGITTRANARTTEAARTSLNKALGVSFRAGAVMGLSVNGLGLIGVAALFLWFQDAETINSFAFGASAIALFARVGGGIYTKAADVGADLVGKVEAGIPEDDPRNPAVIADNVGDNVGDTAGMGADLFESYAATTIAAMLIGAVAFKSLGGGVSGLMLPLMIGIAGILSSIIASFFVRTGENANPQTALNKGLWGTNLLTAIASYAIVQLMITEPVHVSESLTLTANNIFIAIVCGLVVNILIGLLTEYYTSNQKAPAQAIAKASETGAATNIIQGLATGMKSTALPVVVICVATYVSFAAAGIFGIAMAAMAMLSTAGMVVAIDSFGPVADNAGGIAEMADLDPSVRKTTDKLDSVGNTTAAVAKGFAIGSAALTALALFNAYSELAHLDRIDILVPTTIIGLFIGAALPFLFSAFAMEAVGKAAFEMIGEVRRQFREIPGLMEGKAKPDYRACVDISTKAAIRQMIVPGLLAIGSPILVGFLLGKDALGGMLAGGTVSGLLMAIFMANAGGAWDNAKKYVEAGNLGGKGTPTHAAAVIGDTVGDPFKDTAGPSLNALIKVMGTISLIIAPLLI
Description: PPi hydrolysis (continuous Pi assay) and pyranine H+ transport assay, membrane vesicles. The data set is classed as biochemical. To be noted: 150 µM PPi, 5 mM MgSO4, 5 mM Na2SO4, 25 mM K2SO4, 100 mM Mops-KOH pH 7.2.

Substrate in data set [3]: O=P(O)(O)OP(=O)(O)O
In words: cells, lysate or membranes. The data set is classed as biochemical, Phocaeicola vulgatus. To be noted: total PPi, first (stronger) of two sites in the dimer, macroscopic constant, 4.8 mM free Mg2+, 10 mM Na+ (5 mM Na2SO4), 25 mM K2SO4, 100 mM Mops-KOH pH 7.2, 25 °C.

On to `O=P(O)(O)OP(=O)(O)O` [PPi], for which the “PPi hydrolysis (continuous Pi assay) and pyranine Na+ transport assay, membrane” value in data set [1] was “Na^+-translocating Da-mPPase caused monensin-sensitive alkalinization of the vesicle lumen in response to PPi addition”. In data set [2], the “PPi hydrolysis (continuous Pi assay) and pyranine H+ transport assay, membrane v” value is “the PPi addition to Dh-mPPase-containing vesicles progressively decreased pyranine fluorescence”.

B1: Bv-mPPase (Bacteroides vulgatus Na+,H+-translocating mPPase) (Phocaeicola vulgatus ATCC 8482) (protein)
chain: METYLFWIVPIASLLALVLAWYFYKQMMLESEGTPTMEKIASYVRQGAMSYLKQQYKVVGLVFLGLVILFSIMAYGFNLQNPWVPIAFLTGGFFSGLSGFLGMKTATYASARTANAAQHSLNKGLRVAFRSGAVMGLVVVGLGLLDISFWYILLDYCIPTDALNPSAKLCVITTTMLTFGMGASTQALFARVGGGIYTKAADVGADLVGKVEAGIPEDDPRNPATIADNVGDNVGDVAGMGADLYESYCGSILATAALGAAAFIGSDDTVMQFKAVIAPMLIAAVGIVLSIIGIFAVRTKENAGMKELLGSLATGTNLSSVLIVVATFLILWALGLENWVNISFAVVVGLIVGIVIGRSTEYYTSQSYKPTQRLAESGKTGPATVIISGIGLGMVSTTIPVLAVVTGIILSYWLASGFDFANISMGLYGIGIAAVGMLSTLGITLATDAYGPIADNAGGNAEMSGLGKEVRKRTDALDSLGNTTAATGKGFAIGSAALTGLALLASYVEEIRIGLTRLGQTILELPNGITVDVHNASFTDYMLYYDVTLMNPKVLSGMFLGSMMAFLFCGLTMNAVGRAAAHMVEEVRRQFREIKGILTGEAEPDYARCVQISTKGAQREMVFPSLLAIIAPIATGLIFGVPGVIGLLIGGLSSGFVLAIFMANAGGAWDNAKKFIEEGNFGGKGSEVHKATVTGDTVGDPFKDTSGPSLNILIKLMSMVAIVMAGLTVAWSLF
notes: recombinant, expressed in E. coli C41(DE3), in inverted membrane vesicles; homodimer of approx. 70-kDa subunits; EC 7.1.3.1
Regarding B1, the Michaelis constant (Km) in data set [3] came to 15 ± 1 µM.
